Measured values published in US20070010402A1, “Novel herbicides, usage thereof, novel thienopyrimidine derivatives, intermediates of the same, and process for production thereof” (NIHON NOHYAKU CO., LTD.,, priority 2002, published 2007).

Key:
Type in all cases: in vivo
Scirpus juncoides = experiment: Submerged foliar treatment test (Test Example 3); conditions: water depth 3 cm, cotyledon to 1-leaf stage, wettable powder, active ingredient 10 g/a, 28th day from the treatment
Experimental: (§1) The herbicidal effect was evaluated in terms of herbicidal rate obtained from the following equation: Herbicidal rate (%)=[1−(Weight of weeds above the ground in a treated plot)/(Weight of weeds above the ground in a non-treated plot)]×100
(§2) and was expressed by herbicidal index according to the following criteria.
(§3) Alluvial soil from a paddy field was put in a resin-made vat having an area of 200 cm^2. After fertilization, seeds of Echinochloa oryzicola, Rotala indica and Scirpus juncoides were cast on the soil and uniformly covered with the soil, and water was poured onto the soil to keep a water depth of 3 cm. Then, cultivation was continued in a greenhouse, and when the weeds to be tested reached the cotyledon stage to 1-leaf stage, the wettable powder obtained in Formulation Example 1 was diluted with water and a predetermined amount thereof was added dropwise uniformly to the weeds by means of a pipette to give 10 g of the active ingredient per an are. Thereafter, cultivation was further continued in the greenhouse, and the herbicidal effect was examined on the 28th day from the treatment. The results obtained are shown in Table 9 (the compound numbers in Table 9 correspond to those in Tables 1 to 6).

Rotala indica = experiment: Submerged foliar treatment test (Test Example 3); conditions: water depth 3 cm, cotyledon to 1-leaf stage, wettable powder, active ingredient 10 g/a, 28th day from the treatment
Experimental: as §1, §2, §3

Echinochloa oryzicola = experiment: Submerged foliar treatment test (Test Example 3); conditions: water depth 3 cm, cotyledon to 1-leaf stage, wettable powder, active ingredient 10 g/a, 28th day from the treatment
Experimental: as §1, §2, §3

Echinochloa crus-galli = experiment: Field foliar treatment test (Test Example 1); conditions: foliar spray at 1.0- to 2.0-leaf stage, wettable powder, active ingredient 10 g/a, 21st day from the treatment
Experimental: (§4) Alluvial soil from a field was put in a resin-made vat having an area of 200 cm^2. After fertilization, the seeds of Echinochloa crus-galli, Brassica juncea, and Ipomoea purpurea were cast on the soil and uniformly covered with the soil. Then, cultivation was continued in a greenhouse, and when the weeds to be tested reached the 1.0- to 2.0-leaf stage, the wettable powder obtained in Formulation Example 1 was diluted with water and a predetermined amount thereof was sprayed uniformly to the weeds by means of a small-sized power pressure spray to give 10 g of the active ingredient per an are. Thereafter, cultivation was further continued in the greenhouse, and the herbicidal effect was examined on the 21st day from the treatment. The results obtained are shown in Table 7 (the compound numbers in Table 7 correspond to those in Table 1 to 6). The herbicidal effect was evaluated in terms of herbicidal rate obtained from the following equation: Herbicidal rate (%)=[1−(Weight of weeds above the ground in a treated plot)/(Weight of weeds above the ground in a non-treated plot)]×100 and was expressed by herbicidal index according to the following criteria. [table]

Ipomoea purpurea = experiment: Field foliar treatment test (Test Example 1); conditions: foliar spray at 1.0- to 2.0-leaf stage, wettable powder, active ingredient 10 g/a, 21st day from the treatment
Experimental: as §4

Brassica juncea = experiment: Field foliar treatment test (Test Example 1); conditions: foliar spray at 1.0- to 2.0-leaf stage, wettable powder, active ingredient 10 g/a, 21st day from the treatment
Experimental: as §4

Row | Structure (SMILES) | Herbicidal effect Scirpus juncoides (herbicidal index) (Scirpus juncoides) | Herbicidal effect Rotala indica (herbicidal index) (Rotala indica) | Herbicidal effect Echinochloa oryzicola (herbicidal index) (Echinochloa oryzicola) | Herbicidal effect Echinochloa crus-galli (herbicidal index) (Echinochloa crus-galli) | Herbicidal effect Ipomoea purpurea (herbicidal index) (Ipomoea purpurea) | Herbicidal effect Brassica juncea (herbicidal index) (Brassica juncea)
1 | CC(=O)OC1COCC1Oc1nc(-c2cccc(C(F)(F)F)c2)c2cc(C)sc2n1 (mixture of isomers) [6-188] | 4 (71 to 90) | 5 (91 to 100) | 5 (91 to 100) | – | – | –
2 | Cc1cc2c(-c3cccc(OC(F)(F)F)c3)nc(Cl)nc2s1 [5-9] | 4 (71 to 90) | 5 (91 to 100) | 5 (91 to 100) | – | – | –
3 | CCCOc1nc(-c2cccc(C(F)(F)F)c2)c2cc(CC)sc2n1 [6-8] | 4 (71 to 90) | 4 (71 to 90) | 5 (91 to 100) | – | – | –
4 | CCOc1nc(-c2cccc(C(F)(F)F)c2)c2cc(C)sc2n1 [6-24] | 4 (71 to 90) | 5 (91 to 100) | 5 (91 to 100) | – | – | –
5 | CCOc1nc(-c2cccc(OC(F)(F)F)c2)c2cc(C)sc2n1 [6-34] | 5 (91 to 100) | 5 (91 to 100) | 5 (91 to 100) | – | – | –
6 | Cc1cc2c(-c3cccc(OC(F)F)c3)nc(OC(C)C)nc2s1 [6-41] | 4 (71 to 90) | 5 (91 to 100) | 5 (91 to 100) | – | – | –
7 | CCCCCOc1nc(-c2ccccc2C)c2cc(C)sc2n1 [6-47] | 1 (6 to 30) | 3 (51 to 70) | 4 (71 to 90) | – | – | –
8 | CCOc1nc(-c2sccc2C)c2cc(C)sc2n1 [6-50] | 3 (51 to 70) | 4 (71 to 90) | 3 (51 to 70) | – | – | –
9 | CCCOc1nc(-c2cccc(Cl)c2)c2cc(C)sc2n1 [6-52] | 3 (51 to 70) | 5 (91 to 100) | 5 (91 to 100) | – | – | –
10 | Cc1cc2c(-c3cccc(Cl)c3)nc(OC3CCCC3)nc2s1 [6-54] | 4 (71 to 90) | 5 (91 to 100) | 5 (91 to 100) | – | – | –
11 | CCCOc1nc(-c2ccccc2Cl)c2cc(C)sc2n1 [6-56] | 4 (71 to 90) | 5 (91 to 100) | 5 (91 to 100) | – | – | –
12 | Cc1cc2c(-c3cccc(Br)c3)nc(OCC(C)(C)C)nc2s1 [6-60] | 5 (91 to 100) | 5 (91 to 100) | 5 (91 to 100) | – | – | –
13 | CCCOc1nc(-c2cccc(OC)c2)c2cc(C)sc2n1 [6-62] | 5 (91 to 100) | 5 (91 to 100) | 5 (91 to 100) | – | – | –
14 | Cc1cc2c(-c3cccc(C(F)(F)F)c3)nc(OC(C)C(C)C)nc2s1 (stereo not drawn) [6-72] | 3 (51 to 70) | 5 (91 to 100) | 5 (91 to 100) | – | – | –
15 | Cc1cc2c(-c3cccc(SC(F)(F)F)c3)nc(OC3CCCC3)nc2s1 [6-86] | 4 (71 to 90) | 5 (91 to 100) | 5 (91 to 100) | – | – | –
16 | Cc1cc2c(-c3cccc(SC(F)(F)F)c3)nc(OCC(F)F)nc2s1 [6-116] | 4 (71 to 90) | 5 (91 to 100) | 5 (91 to 100) | – | – | –
17 | Cc1cc2c(-c3cccc(SC(F)F)c3)nc(OCC(F)(F)F)nc2s1 [6-127] | 4 (71 to 90) | 5 (91 to 100) | 5 (91 to 100) | – | – | –
18 | Cc1cc2c(-c3cccc(C(F)(F)F)c3)nc(Oc3ccccc3)nc2s1 [6-146] | 2 (31 to 50) | 5 (91 to 100) | 4 (71 to 90) | – | – | –
19 | Cc1cc2c(-c3cccc(C(F)(F)F)c3)nc(OS(=O)(=O)CCl)nc2s1 [6-149] | 4 (71 to 90) | 5 (91 to 100) | 5 (91 to 100) | – | – | –
20 | Cc1cc2c(-c3cccc(C(F)(F)F)c3)nc(OS(=O)(=O)CCCCl)nc2s1 [6-157] | 4 (71 to 90) | 5 (91 to 100) | 5 (91 to 100) | – | – | –
21 | Cc1cc2c(-c3cccc(C(F)(F)F)c3)nc(OS(=O)(=O)N(C)C)nc2s1 [6-160] | 4 (71 to 90) | 5 (91 to 100) | 5 (91 to 100) | – | – | –
22 | Cc1cc2c(-c3cccc(SC(F)(F)F)c3)nc(OS(C)(=O)=O)nc2s1 [6-164] | 4 (71 to 90) | 5 (91 to 100) | 5 (91 to 100) | – | – | –
23 | Cc1cc2c(-c3cccc(C(F)(F)F)c3)nc(N(C)C)nc2s1 [6-169] | 2 (31 to 50) | 5 (91 to 100) | 5 (91 to 100) | – | – | –
24 | Cc1cc2c(-c3cccc(C(F)(F)F)c3)nc(S(C)(=O)=O)nc2s1 [6-174] | 3 (51 to 70) | 5 (91 to 100) | 1 (6 to 30) | – | – | –
25 | Cc1cc2c(-c3ccccc3C(F)(F)F)nc(-n3ccnc3)nc2s1 [6-191] | 3 (51 to 70) | 5 (91 to 100) | 5 (91 to 100) | – | – | –
26 | Cc1cc2c(-c3cccc(C)c3C)nc(OCC(F)(F)F)nc2s1 [6-245] | – | – | – | 4 (71 to 90) | 5 (91 to 100) | 5 (91 to 100)
27 | Cc1cc2c(-c3ccccc3C(F)(F)F)nc(OCC(F)(F)C(F)F)nc2s1 [6-249] | – | – | – | 4 (71 to 90) | 5 (91 to 100) | 5 (91 to 100)
28 | Cc1cc2c(-c3ccccc3OC(F)(F)F)nc(OCC(F)(F)F)nc2s1 [6-251] | – | – | – | 5 (91 to 100) | 5 (91 to 100) | 5 (91 to 100)
29 | CCCOc1nc(-c2ccc(F)c(C(F)(F)F)c2)c2cc(C)sc2n1 [Compound No. 6-29, 4-[4-fluoro-3-(trifluoromethyl)phenyl]-6-methyl-2-propoxythieno[2,3-d]pyrimidine] | – | – | – | 4 (71 to 90) | 5 (91 to 100) | 4 (71 to 90)
